Data as given in patent US3983105A, “Penicillins” (Bayer Aktiengesellschaft, priority 1971, dated 1976).
Where two headings read alike, the source gives them in different places.

Legend:
[1] = system: Klebsiella-Aerobacter; assay: MIC, test tube serial dilution, Klebsiella-Aerobacter; type: cell-based
[2] = system: Proteus vulgaris; assay: MIC, test tube serial dilution, Proteus vulgaris; type: cell-based
[3] = system: Staphylococcus aureus; assay: MIC, test tube serial dilution, Staphylococcus aureus; type: cell-based
[4] = system: Pseudomonas aeruginosa; assay: MIC, test tube serial dilution, Pseudomonas aeruginosa; type: cell-based
[5] = system: Escherichia coli; assay: MIC, test tube serial dilution, Escherichia coli; type: cell-based
[6] = system: Klebsiella-Aerobacter; details: in vivo; cited from earlier work
[7] = system: Streptococcus faecalis; assay: MIC, test tube serial dilution, Streptococcus faecalis; type: cell-based
[8] = system: Proteus morganii; assay: MIC, test tube serial dilution, Proteus morganii; type: cell-based
[9] = system: Serratia marcescens; assay: MIC, test tube serial dilution, Serratia marcescens; type: cell-based
[10] = system: Proteus mirabilis; assay: MIC, test tube serial dilution, Proteus mirabilis; type: cell-based
[11] = system: Providencia; assay: MIC, test tube serial dilution, Providencia; type: cell-based
[12] = system: Proteus rettgeri; assay: MIC, test tube serial dilution, Proteus rettgeri; type: cell-based
[13] = system: Haemophilus influenzae; assay: MIC, test tube serial dilution, Haemophilus influenzae; type: cell-based

With `CC1(C)S[C@@H]2[C@H](NC(=O)[C@H](N)c3ccccc3)C(=O)N2[C@H]1C(=O)O` [Ampicillin, α-aminobenzylpenicillin, reference compound] the MIC ([1]; Table 3, strain 63) was 100-200 U/ml, the MIC ([1]; Table 3, strain K 10) was 100-200 U/ml and the MIC ([2]; Table 3, strain 1017) was 400 U/ml. The MIC ([2]; strain 1017, 24 hours, 37°C) was 400 U/ml, the MIC ([3]; Table 3, strain 133) was under 1 U/ml and the MIC ([4]; Table 3, strain Walter) was 200 U/ml. For the same compound, the MIC ([4]; strain Bonn, 24 hours, 37°C) was 200 U/ml, the MIC ([4]; strain Walter, 24 hours, 37°C) was 200 U/ml and the MIC ([5]; Table 3, strain 183/58) was 200 U/ml. It also gave an MIC ([5]; Table 3, strain A 261) of over 400 U/ml, an MIC ([5]; Table 3, strain C 165) of 6 U/ml and an MIC ([5]; strain 183/58, 24 hours, 37°C) of 200 U/ml. For the same compound, the MIC ([5]; strain A 261, 24 hours, 37°C) was over 400 U/ml and the effectiveness against infections [6] was “not able to combat infections”.
In the case of `CC1(C)S[C@@H]2[C@H](NC(=O)C(C(=O)O)c3ccccc3)C(=O)N2[C@H]1C(=O)O` (stereo partly drawn) [Carbenicillin, reference compound], the MIC ([7]; strain 8 698) is reported as 100 U/ml, the MIC ([7]; strain 8 709) is reported as 200 U/ml and the MIC ([7]; strain 8 711) is reported as 50 U/ml. For the same compound, the MIC ([1]; aerogenes 418) was 400 U/ml, the MIC ([1]; strain 60) was 100 U/ml and the MIC ([1]; strain 62) was 100 U/ml. For the same compound, the MIC ([1]; strain 63, 24 hours, 37°C) was 400 U/ml, the MIC ([1]; strain 69) was over 400 U/ml and the MIC ([1]; strain 70) was 400 U/ml. For the same compound, the MIC ([1]; strain 75) was over 400 U/ml, the MIC ([1]; strain 1852) was over 400 U/ml and the MIC ([1]; strain 1871) was 400 U/ml. The MIC ([1]; strain K 10, 24 hours, 37°C) was over 400 U/ml, the MIC ([8]; strain 1 102) was over 800 U/ml and the MIC ([8]; strain 932, 24 hours, 37°C) was 6 U/ml. For the same compound, the MIC ([9]; strain 3) was 400 U/ml, the MIC ([9]; strain 7) was 100 U/ml and the MIC ([9]; strain 9) was 6 U/ml. The MIC ([9]; strain 13) was 6 U/ml, the MIC ([9]; strain K) was 6 U/ml and the MIC ([2]; strain 3 400) was 50 U/ml. The MIC ([3]; strain P 209) was under 0.8 U/ml, the MIC ([3]; strain SG 511) was under 0.8 U/ml and the MIC ([4]; strain A) was 25 U/ml. It also gave an MIC ([4]; strain Bonn, 24 hours, 37°C) of 200 U/ml, an MIC ([4]; strain E 27 500) of 100 U/ml and an MIC ([4]; strain F 41, 24 hours, 37°C) of 100 U/ml. The MIC ([4]; strain V 10 797) was 50 U/ml, the MIC ([4]; strain V 10 818) was 100 U/ml and the MIC ([4]; strain V 10 887) was 100 U/ml. It also gave an MIC ([4]; strain V 10 900) of 50 U/ml, an MIC ([4]; strain Walter, 24 hours, 37°C) of 100 U/ml and an MIC ([10]; Sp.) of 1.6 U/ml. It also gave an MIC ([10]; strain 605) of 400 U/ml, an MIC ([10]; strain G.) of 1.6 U/ml and an MIC ([5]; strain 14, 24 hours, 37°C) of 1.6 U/ml. For the same compound, the MIC ([5]; strain 1465) was over 400 U/ml, the MIC ([5]; strain A 261, 24 hours, 37°C) was 400 U/ml and the MIC ([5]; strain B 94) was 1.6 U/ml. It also gave an MIC ([5]; strain N) of 6 U/ml, an MIC ([5]; strain S) of 400 U/ml and an MIC ([5]; strain T 7) of over 400 U/ml. It also gave an MIC ([5]; strain T 20/2) of over 400 U/ml, an MIC ([11]; strain 930) of 6 U/ml and an MIC ([12]; Sp.) of 1.6 U/ml. The MIC ([12]; strain 1 050) was over 400 U/ml, the MIC ([12]; strain 824) was over 400 U/ml and the effectiveness against infections [6] was “only effective in man in the case of infections caused by Klebsiella-Aerobacter if administered in a continuous high dosage”. The MIC ([13]; strain 2 689) was 1.6 U/ml, the MIC ([13]; strain 2 718) was 0.8 U/ml and the MIC ([13]; strain 2 786) was 1.6 U/ml. The MIC ([13]; strain 2 788) was under 0.4 U/ml.
In the case of `CC1(C)S[C@@H]2[C@H](NC(=O)[C@H](NC(=O)N3CCN(S(C)(=O)=O)C3=O)c3ccccc3)C(=O)N2[C@H]1C(=O)O` [Example 4, Sodium D(-)-α-[(3-methylsulphonyl-imidazolidin-2-on-1-yl)-carbonylamino]-benzylpencillin], the MIC ([7]; ATCC 9790, 24 hours, 37°C) is reported as 16-32 U/ml, the MIC ([7]; strain 8 698) is reported as 1.6 U/ml and the MIC ([7]; strain 8 709) is reported as 12.5 U/ml. It also gave an MIC ([7]; strain 8 711) of 3 U/ml, an MIC [1] of under 0.8 U/ml and an MIC ([1]; aerogenes 418) of 3 U/ml. The MIC ([1]; strain 62) was 1.6 U/ml, the MIC ([1]; strain 63, 24 hours, 37°C) was 4 - 16 U/ml and the MIC ([1]; strain 69) was 1.6 U/ml. It also gave an MIC ([1]; strain 70) of 3 U/ml, an MIC ([1]; strain 75) of 6 U/ml and an MIC ([1]; strain 1852) of over 400 U/ml. The MIC ([1]; strain 1871) was 6 U/ml, the MIC ([1]; strain K 10, 24 hours, 37°C) was 4 - 16 U/ml and the MIC ([8]; Sp.) was 3 U/ml. It also gave an MIC ([8]; strain 1 102) of 200 U/ml, an MIC ([9]; strain 2) of 1.6 U/ml and an MIC ([9]; strain 3) of 12.5 U/ml. It also gave an MIC ([9]; strain 4) of 1.6 U/ml, an MIC ([9]; strain 6) of 1.6 U/ml and an MIC ([9]; strain 7) of 1.6 U/ml. For the same compound, the MIC ([9]; strain 9) was under 0.8 U/ml, the MIC ([9]; strain 13) was under 0.8 U/ml and the MIC ([9]; strain K) was under 0.8 U/ml. It also gave an MIC ([2]; strain 3 400) of 6 U/ml, an MIC ([2]; strain 1017, 24 hours, 37°C) of 1.6 U/ml and an MIC [3] of 200 U/ml. For the same compound, the MIC ([3]; strain 1756 (BRL 1 756), 24 hours, 37°C) was 64-256 U/ml, the MIC ([3]; strain P 209) was under 0.8 U/ml and the MIC ([3]; strain SG 511) was under 0.8 U/ml. The MIC ([4]; strain A) was 12.5 U/ml, the MIC ([4]; strain Bonn, 24 hours, 37°C) was 16 - 32 U/ml and the MIC ([4]; strain E 27 500) was 12.5 U/ml. For the same compound, the MIC ([4]; strain V 10 797) was 12.5 U/ml, the MIC ([4]; strain V 10 818) was 25 U/ml and the MIC ([4]; strain V 10 887) was 12.5 U/ml. For the same compound, the MIC ([4]; strain V 10 900) was 12.5 U/ml, the MIC ([4]; strain Walter, 24 hours, 37°C) was 4-16 U/ml and the MIC ([10]; Sp.) was 1.6 U/ml. For the same compound, the MIC ([10]; strain 1 235) was 1.6 U/ml, the MIC ([10]; strain 605) was 3 U/ml and the MIC ([10]; strain G.) was under 0.4 U/ml. For the same compound, the MIC ([5]; strain 26/6) was under 0.8 U/ml, the MIC ([5]; strain 55 B 5) was under 0.8 U/ml and the MIC ([5]; strain 183/58, 24 hours, 37°C) was 1 - 4 U/ml. The MIC ([5]; strain 1465) was over 400 U/ml, the MIC ([5]; strain A 261, 24 hours, 37°C) was 32 - 64 U/ml and the MIC ([5]; strain B) was under 0.8 U/ml. The MIC ([5]; strain B 94) was under 0.8 U/ml, the MIC ([5]; strain C 165, 24 hours, 37°C) was 1 - 4 U/ml and the MIC ([5]; strain N) was 1.6 U/ml. The MIC ([5]; strain S) was 32 U/ml, the MIC ([5]; strain T 7) was over 400 U/ml and the MIC ([5]; strain T 20/2) was over 400 U/ml. The MIC ([11]; strain 930) was under 0.8 U/ml, the MIC ([11]; strain 933) was 12.5 U/ml and the MIC ([11]; strain 945) was under 0.8 U/ml. The MIC ([12]; Sp.) was 0.8 U/ml, the MIC ([12]; strain 1 050) was over 400 U/ml and the MIC ([12]; strain 824) was over 400 U/ml. The MIC ([13]; strain 2 684) was 0.1 U/ml, the MIC ([13]; strain 2 689) was 0.25 U/ml and the MIC ([13]; strain 2 718) was 0.1 U/ml. The MIC ([13]; strain 2 786) was 0.06 U/ml and the MIC ([13]; strain 2 788) was 0.5 U/ml.
In the case of `CC(=O)N1CCN(C(=O)NC(C(=O)N[C@@H]2C(=O)N3[C@@H]2SC(C)(C)[C@@H]3C(=O)O)c2c(Cl)cccc2Cl)C1=O` (stereo partly drawn) [Penicillin No. 10 (Table 3), Sodium D,L-α-[(3-acetyl-imidazolidin-2-on-1-yl)carbonylamino]-2,6-dichloro-benzylpenicillin], the MIC ([7]; Table 3, ATCC 9790) is reported as over 512 U/ml, the MIC ([1]; Table 3, strain 63) is reported as over 512 U/ml and the MIC ([1]; Table 3, strain K 10) is reported as over 512 U/ml. It also gave an MIC ([8]; Table 3, strain 932) of 256 U/ml, an MIC ([2]; Table 3, strain 1017) of 256 U/ml and an MIC ([3]; Table 3, strain 133) of 16 U/ml. For the same compound, the MIC ([3]; Table 3, strain 1756E) was 512 U/ml, the MIC ([4]; Table 3, strain F 41) was over 512 U/ml and the MIC ([4]; Table 3, strain Walter) was over 512 U/ml. It also gave an MIC ([5]; Table 3, strain 14) of 128 U/ml, an MIC ([5]; Table 3, strain 183/58) of 256 U/ml and an MIC ([5]; Table 3, strain A 261) of over 512 U/ml. The MIC ([5]; Table 3, strain C 165) was 512 U/ml.
